These results are taken from patent publication US20130210039A1, “BLOOD INSULIN RESISTANCE AND DIABETES MARKER PROGRANULIN, METHOD FOR ANALYZING CONCENTRATION OF PROGRANULIN IN BLOOD SAMPLE, AND METHOD FOR SCREENING FOR SUBSTANCE THAT IMPROVES INSULIN RESISTANCE AND IMPROVES OR SUPPRESSES DIABETES” (priority 2010, published 2013).

The test system of one assay is progranulin (PGRN) mRNA. Nature of the assay: Progranulin mRNA expression in adipose tissues of ob/ob mice orally administered pioglitazone. The assay is classed as in vivo. Conditions: ten-week-old ob/ob mice, 30 mg/kg orally every day for 1 week, mean±S.D. The protocol: Adipose tissues (mesenteric fat tissue (MF), epididymal fat tissue (EF), and subcutaneous adipose tissue (SC)) were extracted from seven-week-old ob/ob mice and ob/+ mice and subjected to real-time PCR analysis to determine the expression levels of mRNA for progranulin (PGRN).
(§1) Ten-week-old ob/ob mice were orally administered with 30 mg/kg of a thiazolidine derivative (pioglitazone) every day for 1 week. An oral glucose tolerance test (OGTT) was performed on these mice and a control group (Vehicle) administered with only a solvent (10% (w/v) carboxymethyl cellulose).
In FIG. 8, the horizontal axis represents the type of adipose tissue (epididymal fat tissue (EF), mesenteric fat tissue (MF), subcutaneous adipose tissue (SC) (white adipose tissue (WAT) and brown adipose tissue (BAT)), the vertical axis represents the relative expression level of progranulin mRNA (relative PRGN mRNA expression), “Vehicle” represents the control group, and “Pio” represents the pioglitazone administration group.

In another assay the test system is progranulin (PGRN). The assay can be described thus: Serum progranulin concentration in ob/ob mice orally administered pioglitazone (ELISA). The assay is classed as in vivo. To be noted: ten-week-old ob/ob mice, 30 mg/kg orally every day for 1 week; mean±S.D., n=5; p<0.05 vs Vehicle (2.57±0.28). The protocol:
Blood samples were collected from seven-week-old ob/ob mice and ob/+ mice, allowed to stand at room temperature, and centrifuged to prepare serum samples. Serum progranulin concentrations were measured by ELISA.
as §1
In FIG. 9, the horizontal axis represents the type of group to be measured (pioglitazone administration group (Pio), control group (Vehicle), and ob/+ mice) and the vertical axis represents the serum progranulin concentration (Serum PGRN conc.) (μg/mL).

Another assay has as its system cultured adipocytes. Conditions: cultured adipocytes treated with the substance alone; cited from earlier work.
The test system of another assay is Akt protein. Conditions: cultured adipose cells treated with progranulin protein, under insulin stimulation; cited from earlier work.

In the case of `CCc1ccc(CCOc2ccc(CC3SC(=O)NC3=O)cc2)nc1` (stereo not drawn) [pioglitazone], in the assay on progranulin (PGRN) mRNA (p<0.01 vs Vehicle), the “expression level of mRNA for progranulin in mesenteric fat tissue (MF)” value was 0.42±0.11 times that of the control group. In the assay with progranulin (PGRN) mRNA (p<0.05 vs Vehicle), the “expression level of mRNA for progranulin in epididymal fat tissue (EF)” value is on record as 0.74±0.06 times that of the control group and the “expression level of mRNA for progranulin in subcutaneous adipose tissue (SC) (white adipose tissue (WAT))” value is 0.61±0.07 times that of the control group. The molecule also displayed a serum progranulin concentration with progranulin (PGRN) of 1.86 ± 0.10 µg/mL.

For TNF-α, in the assay with cultured adipocytes, the “expression level of progranulin” value is listed as “increased”.

B1: progranulin protein: granulin precursor protein having seven kinds of granulin domains; insulin resistance marker (protein)
chain: MWTLVSWVALTAGLVAGTRCPDGQFCPVACCLDPGGASYSCCRPLLDKWPTTLSRHLGGPCQVDAHCSAGHSCIFTVSGTSSCCPFPEAVACGDGHHCCPRGFHCSADGRSCFQRSGNNSVGAIQCPDSQFECPDFSTCCVMVDGSWGCCPMPQASCCEDRVHCCPHGAFCDLVHTRCITPTGTHPLAKKLPAQRTNRAVALSSSVMCPDARSRCPDGSTCCELPSGKYGCCPMPNATCCSDHLHCCPQDTVCDLIQSKCLSKENATTDLLTKLPAHTVGDVKCDMEVSCPDGYTCCRLQSGAWGCCPFTQAVCCEDHIHCCPAGFTCDTQKGTCEQGPHQVPWMEKAPAHLSLPDPQALKRDVPCDNVSSCPSSDTCCQLTSGEWGCCPIPEAVCCSDHQHCCPQGYTCVAEGQCQRGSEIVAGLEKMPARRASLSHPRDIGCDQHTSCPVGQTCCPSLGGSWACCQLPHAVCCEDRQHCCPAGYTCNVKARSCEKEVVSAQPATFLARSPHVGVKDVECGEGHFCHDNQTCCRDNRQGWACCPYRQGVCCADRRHCCPAGFRCAARGTKCLRREAPRWDAPLRDPALRQLL
modifications: human
notes: granulin precursor protein having seven kinds of granulin domains; insulin resistance marker
For the molecule B1, the “activity of Akt protein activated downstream of an insulin receptor” value in the assay with Akt protein was “significantly suppressed”.
